Experimental data published in US20030087906A1, “NITROGEN SUBSTITUTED BIARYL PURINE DERIVATIVES AS POTENT ANTIPROLIFERATIVE AGENTS” (priority 2001, published 2003).

What was measured:
Test in all cases: NCI 60-cell line growth inhibition assay
Assay type in all cases: cell-based
MDA-MB-231/ATCC = details: Homo sapiens
NCI/ADR-RES = details: Homo sapiens
T-47D = details: Homo sapiens, T47D
SF-295 = details: Homo sapiens
SNB-19 = details: Homo sapiens
SNB-75 = details: Homo sapiens
U251 = details: Homo sapiens, U-251
HCC-2998 = details: Homo sapiens
HCT-116 = details: Homo sapiens
HT29 = details: Homo sapiens, HT-29; HT29 (Colon)
KM12 = details: Homo sapiens
SW-620 = details: Homo sapiens; SW-620 (Colon)
HL-60(TB) = details: Homo sapiens; HL-60(TB) (Leukemia)
K-562 = details: Homo sapiens, K562
MOLT-4 = details: Homo sapiens
RPMI-8226 = details: Homo sapiens
M14 = details: Homo sapiens
SK-MEL-2 = details: Homo sapiens
SK-MEL-28 = details: Homo sapiens
SK-MEL-5 = details: Homo sapiens
UACC-257 = details: Homo sapiens
UACC-62 = details: Homo sapiens
NCI-H23 = details: Homo sapiens
NCI-H322M = details: Homo sapiens
NCI-H522 = details: Homo sapiens; NCI-H522 (Non-Small Cell Lung)
OVCAR-4 = details: Homo sapiens
OVCAR-5 = details: Homo sapiens
PC-3 = details: Homo sapiens
786-0 = details: Homo sapiens
ACHN = details: Homo sapiens
CAKI-1 = details: Homo sapiens
RXF 393 = details: Homo sapiens
SN12C = details: Homo sapiens; SN12C (Renal)
UO-31 = details: Homo sapiens
MDA-MB-435 = details: Homo sapiens
SF-268 = details: Homo sapiens
SF-539 = details: Homo sapiens
CCRF-CEM = details: Homo sapiens
SR = details: Homo sapiens; SR (Leukemia)
HOP-92 = details: Homo sapiens
HS 578T = details: Homo sapiens; Breast, HS 578T
[1] = NCI-H322M (Non-Small Cell Lung)

CC(C)n1cnc2c(NCc3ccc(-c4ccccn4)cc3)nc(N[C@H]3CC[C@H](N)CC3)nc21 [Compound 78]
GI50 (MDA-MB-231/ATCC; MDA-MB-231/ATCC (Breast)): < 10 nM | GI50 (NCI/ADR-RES; NCI/ADR-RES (Breast)): 14400 nM | GI50 (T-47D; T-47D (Breast)): 30 nM | GI50 (SF-295; SF-295 (CNS)): 210 nM | GI50 (SNB-19; SNB-19 (CNS)): < 10 nM | GI50 (SNB-75; SNB-75 (CNS)): < 10 nM | GI50 (U251; U251 (CNS)): 20 nM | GI50 (HCC-2998; HCC-2998 (Colon)): < 10 nM | GI50 (HCT-116; HCT-116 (Colon)): 30 nM | GI50 (HT29): < 10 nM | GI50 (KM12; KM12 (Colon)): < 10 nM | GI50 (SW-620): < 10 nM | GI50 (HL-60(TB)): < 10 nM | GI50 (K-562; K-562 (Leukemia)): 20 nM | GI50 (MOLT-4; MOLT-4 (Leukemia)): < 10 nM | GI50 (RPMI-8226; RPMI-8226 (Leukemia)): < 10 nM | GI50 (M14; M14 (Melanoma)): < 10 nM | GI50 (SK-MEL-2; SK-MEL-2 (Melanoma)): 20 nM | GI50 (SK-MEL-28; SK-MEL-28 (Melanoma)): 10 nM | GI50 (SK-MEL-5; SK-MEL-5 (Melanoma)): 100 nM | GI50 (UACC-257; UACC-257 (Melanoma)): 20 nM | GI50 (UACC-62; UACC-62 (Melanoma)): 30 nM | GI50 (NCI-H23; NCI-H23 (Non-Small Cell Lung)): 10 nM | GI50 (NCI-H322M; [1]): < 10 nM | GI50 (NCI-H522): < 10 nM | GI50 (OVCAR-4; OVCAR-4 (Ovarian)): 20 nM | GI50 (OVCAR-5; OVCAR-5 (Ovarian)): < 10 nM | GI50 (PC-3; PC-3 (Prostate)): < 10 nM | GI50 (786-0; 786-0 (Renal)): 40 nM | GI50 (ACHN; ACHN (Renal)): 320 nM | GI50 (CAKI-1; CAKI-1 (Renal)): 790 nM | GI50 (RXF 393; RXF 393 (Renal)): < 10 nM | GI50 (SN12C): < 10 nM | GI50 (UO-31; UO-31 (Renal)): 170 nM

CC[C@H](CO)Nc1nc(NCc2ccc(-c3ccc(OC)cc3)cc2)c2ncn(C(C)C)c2n1 [Compound 43]
GI50 (MDA-MB-231/ATCC; MDA-MB-231/ATCC (Breast)): 3200 nM | GI50 (MDA-MB-435; MDA-MB-435 (Breast)): 2100 nM | GI50 (NCI/ADR-RES; NCI/ADR-RES (Breast)): 5200 nM | GI50 (T-47D; T-47D (Breast)): 2200 nM | GI50 (SF-268; SF-268 (CNS)): 3000 nM | GI50 (SF-295; SF-295 (CNS)): 4000 nM | GI50 (SF-539; SF-539 (CNS)): 3400 nM | GI50 (SNB-19; SNB-19 (CNS)): 5000 nM | GI50 (U251; U251 (CNS)): 2300 nM | GI50 (HCC-2998; HCC-2998 (Colon)): 3400 nM | GI50 (HCT-116; HCT-116 (Colon)): 2100 nM | GI50 (HT29): 3600 nM | GI50 (KM12; KM12 (Colon)): 2300 nM | GI50 (SW-620): 1600 nM | GI50 (CCRF-CEM; CCRF-CEM (Leukemia)): 2800 nM | GI50 (HL-60(TB)): 2100 nM | GI50 (K-562; K-562 (Leukemia)): 3100 nM | GI50 (MOLT-4; MOLT-4 (Leukemia)): 2000 nM | GI50 (SR): 2200 nM | GI50 (M14; M14 (Melanoma)): 2200 nM | GI50 (SK-MEL-2; SK-MEL-2 (Melanoma)): 61700 nM | GI50 (SK-MEL-28; SK-MEL-28 (Melanoma)): 2300 nM | GI50 (SK-MEL-5; SK-MEL-5 (Melanoma)): 2100 nM | GI50 (UACC-257; UACC-257 (Melanoma)): 4800 nM | GI50 (UACC-62; UACC-62 (Melanoma)): 3300 nM | GI50 (HOP-92; HOP-92 (Non-Small Cell Lung)): 2600 nM | GI50 (NCI-H23; NCI-H23 (Non-Small Cell Lung)): 4300 nM | GI50 (NCI-H322M; [1]): 3500 nM | GI50 (OVCAR-4; OVCAR-4 (Ovarian)): 8900 nM | GI50 (OVCAR-5; OVCAR-5 (Ovarian)): 3600 nM | GI50 (PC-3; PC-3 (Prostate)): 38900 nM | GI50 (786-0; 786-0 (Renal)): 3100 nM | GI50 (ACHN; ACHN (Renal)): 3100 nM | GI50 (CAKI-1; CAKI-1 (Renal)): 3000 nM | GI50 (RXF 393; RXF 393 (Renal)): 1900 nM | GI50 (UO-31; UO-31 (Renal)): 2800 nM

CC[C@H](CO)Nc1nc(NCc2ccc(-c3ccccc3)cc2)c2ncn(C(C)C)c2n1 [Compound 73]
GI50 (HS 578T): 100 nM | GI50 (MDA-MB-231/ATCC; Breast, MDA-MB-231/ATCC): 500 nM | GI50 (MDA-MB-435; Breast, MDA-MB-435): 250 nM | GI50 (NCI/ADR-RES; Breast, NCI/ADR-RES): 400 nM | GI50 (T-47D; Breast, T-47D): 250 nM | GI50 (SF-268; CNS, SF-268): 160 nM | GI50 (SF-295; CNS, SF-295): 250 nM | GI50 (SF-539; CNS, SF-539): 760 nM | GI50 (SNB-19; CNS, SNB-19): 430 nM | GI50 (SNB-75; CNS, SNB-75): 20 nM | GI50 (U251; CNS, U251): 320 nM | GI50 (HCC-2998; Colon, HCC-2998): 200 nM | GI50 (HCT-116; Colon, HCT-116): 200 nM | GI50 (KM12; Colon, KM12): 130 nM | GI50 (CCRF-CEM; Leukemia, CCRF-CEM): 250 nM | GI50 (K-562; Leukemia, K-562): 160 nM | GI50 (MOLT-4; Leukemia, MOLT-4): 320 nM | GI50 (RPMI-8226; Leukemia, RPMI-8226): 30 nM | GI50 (M14; Melanoma, M14): 30 nM | GI50 (SK-MEL-2; Melanoma, SK-MEL-2): 630 nM | GI50 (SK-MEL-28; Melanoma, SK-MEL-28): 450 nM | GI50 (SK-MEL-5; Melanoma, SK-MEL-5): 250 nM | GI50 (UACC-257; Melanoma, UACC-257): 160 nM | GI50 (UACC-62; Melanoma, UACC-62): 300 nM | GI50 (HOP-92; Non-Small Cell Lung, HOP-92): 1000 nM | GI50 (NCI-H23; Non-Small Cell Lung, NCI-H23): 320 nM | GI50 (NCI-H322M; Non-Small Cell Lung, NCI-H322M): 160 nM | GI50 (OVCAR-4; Ovarian, OVCAR-4): 320 nM | GI50 (OVCAR-5; Ovarian, OVCAR-5): 250 nM | GI50 (PC-3; Prostate, PC-3): 350 nM | GI50 (786-0; Renal, 786-0): 200 nM | GI50 (ACHN; Renal, ACHN): 320 nM | GI50 (CAKI-1; Renal, CAKI-1): 1660 nM | GI50 (RXF 393; Renal, RXF 393): 90 nM | GI50 (UO-31; Renal, UO-31): 60 nM
